Measurements reported in US8383619B2, “Pharmaceutical compounds” (Astex Therapeutics Limited, priority 2008, dated 2013).

Tests used:
[1] = Whole blood stability; format: in vitro ADME; conditions: 1 μM, 37° C.
Text: (§1) The breakdown of a prodrug in vivo could occur in one or more of several different compartments including for example, but not limited to blood/plasma, liver, stomach, target tissue (e.g. tumour). The preferred location for optimum formation of the parent drug will depend on the disposition in vivo of the pro-drug and parent and an understanding of the optimum concentrations of each required in the circulation to maximise exposure to the active moiety in the target tissue. The potential for pro-drug molecules to deliver the active parent drug may be assessed in vitro by measuring the breakdown of a pro-drug in the presence of relevant body fluids. For the purpose of gaining a preliminary understanding of the stability of compounds of the invention to enzymatic hydrolysis in two such bodily compartments, compound turnover has been studied following incubation in whole blood and liver homogenate from mice and humans. The data obtained from these studies provide a preliminary understanding of which of the prodrugs are better able to deliver parent compound (i.e. are more rapidly broken down to parent compound) in these compartments. Further studies could also determine stability in other compartments (e.g. in the target tumours by measuring stability in tumour lysates).
For these studies, human whole blood was collected from 3 male healthy volunteers in lithium heparin tubes. The blood was pooled and stored at room temperature for a maximum of 2 hours prior to initiation of incubations. Mouse blood was collected from 70 male mice, strain: Balb/c into lithium heparin tubes and pooled.
(§2) Each incubation consisted of a volume of 1 mL. Test compound dosing solutions were then spiked into each homogenate at a final compound concentration of 1 μM. Incubations were performed in the atmosphere in a shaking water bath at 37° C.
(§3) An aliquot of incubation samples was removed into an equal volume of ice-cold acetonitrile at various time points. Samples (whole blood/homogenate+acetonitrile) were centrifuged and aliquots of the supernatant were analysed by HPLC-MS/MS.
(§4) The compound X (2,4-dihydroxy-5-isopropyl-phenyl)-[5-(4-methyl-piperazin-1-ylmethyl)-1,3-dihydro-isoindol-2-yl]-methanone) and the compounds of Examples 1 to 24 were incubated in both whole blood and liver homogenate by Quotient Bioresearch (Rushden, UK). The percentage remaining of parent compound following incubation in whole blood/liver homogenate from human and mouse are set out in the table below.

[2] = Liver homogenate stability; format: in vitro ADME; conditions: 1 μM, 37° C., 120 mins
Text: as §1
Mouse livers were obtained from 20 male mice, strain: Balb/c from stock animals. Human liver tissue was obtained from 3 individuals sourced from a UK human tissue bank. The livers were stored frozen. The livers were defrosted and then homogenised to form a homogenate of approximately 30% (w/v) in phosphate buffer, 100 mM, pH 7.4 (referred to as ‘buffer’). Homogenates were kept on ice until use.
as §2, §3, §4

[3] = Tolerability, four consecutive daily doses; format: in vivo, mouse
[4] = Mouse pharmacokinetics, oral gavage; format: in vivo, Balb/c mice; conditions: compared with examples 16 and 11
Method: Balb/c mice are dosed with a prodrug by oral gavage. A single administration of one of the 24 examples is given and a dose volume of 10 mL/kg is used for PO doses.
Blood samples are collected in lithium heparin coated tubes at selected time points.
Plasma is isolated by centrifugation and frozen before analysis.
Plasma samples are prepared by liquid-liquid extraction with Acetonitrile containing internal standard. Quantification is by comparison with a standard calibration line constructed with each compound and using a LC-MS/MS method specific to each compound. Animals that had been dosed one of the 24 examples were analysed for prodrug and compound X (2,4-dihydroxy-5-isopropyl-phenyl)-[5-(4-methyl-piperazin-1-ylmethyl)-1,3-dihydro-isoindol-2-yl]-methanone). Pharmacokinetics parameters are calculated using WinNonLin® non compartmental analysis software.
The plasma AUC0.25-2 hrs after PO administration of selected examples are set out in the table below. For examples 16, 17 and 11, plasma AUC0.25-2 hrs was determined following a single dose of 120 μmoles/kg or 240 μmoles/kg.

| SMILES | Percentage remaining Human blood ([1]; 120 mins) [%] | Percentage remaining Mouse blood ([1]; 120 mins) [%] | Percentage remaining Human Liver [2] [%] | Percentage remaining Mouse Liver [2] [%] | tolerability ([3]; four consecutive daily doses at 240 μmoles/kg) | Percentage remaining Mouse blood ([1]; 60 mins (footnote *)) [% *] | exposure of the active pharmaceutical agent relative to the starting dose [4] | tolerability ([3]; four consecutive daily doses at 120 μmoles/kg) |
| --- | --- | --- | --- | --- | --- | --- | --- | --- |
| CC(C)c1cc(C(=O)N2Cc3ccc(CN4CCN(C)CC4)cc3C2)c(OC(=O)N(C)C)cc1OC(=O)N(C)C [Example 11, dimethyl-carbamic acid 5-dimethylcarbamoyloxy-2-isopropyl-4-[5-(4-methyl-piperazin-1-ylmethyl)-1,3-dihydro-isoindole-2-carbonyl]-phenyl ester] | 93 | 38 | 31 | 1 | well tolerated |  |  |  |
| CC(C)c1cc(C(=O)N2Cc3ccc(CN4CCN(C)CC4)cc3C2)c(OC(=O)N2CCOCC2)cc1OC(=O)N1CCOCC1 [Example 13, 2-[2,4-bis-(morpholin-4-ylcarbonyloxy)-5-isopropyl-benzoyl]-5-(4-methyl-piperazin-1-ylmethyl)-1,3-dihydro-isoindole] | 76 | 0 | 0 | 0 |  |  |  |  |
| CC(C)c1cc(C(=O)N2Cc3ccc(CN4CCN(C)CC4)cc3C2)c(O)cc1OC(=O)N1CCCC1 [Example 19, 2-[4-(pyrrolidin-1-ylcarbonyloxy)-2-hydroxy-5-isopropyl-benzoyl]-5-(4-methyl-piperazin-1-ylmethyl)-1,3-dihydro-isoindole] | 102 |  | 0 | 0 |  | 79 |  |  |
| CC(C)c1cc(C(=O)N2Cc3ccc(CN4CCN(C)CC4)cc3C2)c(O)cc1OC(=O)N(C)C [Example 17, dimethyl-carbamic acid 5-hydroxy-2-isopropyl-4-[5-(4-methyl-piperazin-1-ylmethyl)-1,3-dihydro-isoindole-2-carbonyl]-phenyl ester] | 90 | 24 | 0 | 0 |  |  | optimal exposure of the active pharmaceutical agent relative to the starting dose | well tolerated |
| COCOc1cc(OCOC)c(C(C)C)cc1C(=O)N1Cc2ccc(CN3CCN(C)CC3)cc2C1 [Example 9, [5-Isopropyl-2,4-bis-(methoxymethyloxy)-phenyl]-[5-(4-methyl-piperazin-1-ylmethyl)-1,3-dihydro-isoindol-2-yl]-methanone] | 111 |  | 98 | 82 |  | 105 |  |  |
| CCN(CC)C(=O)Oc1cc(O)c(C(=O)N2Cc3ccc(CN4CCN(C)CC4)cc3C2)cc1C(C)C [Example 15, Diethyl-carbamic acid 5-hydroxy-2-isopropyl-4-[5-(4-methyl-piperazin-1-ylmethyl)-1,3-dihydro-isoindole-2-carbonyl]-phenyl ester] | 123 | 58 | 35 | 26 |  |  |  |  |
